Source: patent US8614064B2, “Methods of diagnosing atherosclerosis by measuring ApoCI” (The Johns Hopkins University, priority 2003, dated 2013)

How the values were obtained:
[1] = system: human aortic smooth muscles cells (ASMC); experiment: Fluorescence microscope quantitative assay of apoptotic death (DAPI staining); format: cell-based; settings: C2-ceramide 10 μmol/L + ApoCI 2.5 μg/mL + GW4869 20 μmol/L, 24 h; control 2.2%
Description: (§1) FIGS. 1A-1C depict the effect of apolipoproteins on apoptosis in human aortic smooth muscles cells (ASMC). ASMC were grown on sterilized glass cover slips and incubated for 24 hours with media alone (control), ApoCIII (negative control, 2.5 μg/mL medium), ApoCI (2.5 μg/mL medium), ApoCI-enriched HDL (1 μg apoA-I/mL medium), or ApoCI-poor HDL (5 μg apoA-I/mL medium) for 24 hours. Cells were then fixed with ethanol-acetic acid (3:1 volume/volume) and washed 3 times with phosphate-buffered saline. The cells were then stained with DAPI reagent, mounted on a glass cover slide, and subjected to fluorescence microscopy. FIG. 1A: The nucleus of normal cells stains blue and the nucleus of apoptotic cells stains is fragmented white. FIG. 1B: 300 to 500 cells in each sample were counted and the percent of apoptotic cells was plotted. Values are mean±SD; **P<0.01, ***P<0.001. FIG. 1C: DNA ladder assay. Confluent cultures of ASMC were incubated with control medium alone, ApoCI (2.5 μg/mL medium), ApoCIII (negative control, 2.5 μg/mL medium), and TNF-α (positive control, 20 ng/mL medium). Genomic DNA was extracted and 10 μg DNA was subjected to agarose gel electrophoresis. The gels were calibrated with commercially available DNA standards. After electrophoresis, the gels were stained with ethidium bromide and then photographed.
FIGS. 2A-2B depict the effect of ApoCI, the N-SMase inhibitor, GW4869, and C-2 ceramide on apoptosis in cultured human ASMC. FIG. 2A: ASMC (1×10^3) were seeded on sterilized glass cover slips and grown in tissue culture medium with 10% fetal calf serum for 48 hours. […] Thirty minutes later, vehicle DMSO, ApoCI (2.5 μg/mL), or C2-ceramide (10 μmol/L) were added to dishes, and the incubation continued for 24 hours. The cells were then fixed with ethanol-acetic acid (3:1 v/v), stained with DAPI reagent, assessed by fluorescent microscopy, and photographed. Top to bottom: control cells; cells incubated with ApoCI± the N-SMase inhibitor, GW4869; and cells incubated with ApoCI GW4869, and C2-ceramide. FIG. 2B: The DAPI-stained ASMC from the four experimental conditions described was analyzed for quantitative apoptosis. Mean (SD) from 4 experiments. *P<0.05.
Human AoSMC that were negative for mycoplasma, hepatitis B and C and HIV-1 were purchased from Clonetics (San Diego, Calif.) and cultured in Dulbecco's minimal essential medium (Invitrogen, Carlsbad, Calif.) with 10% fetal bovine serum (Hyclone, Salt Lake City, Utah), 100-units/ml penicillin, 100-μg/ml streptomycin to confluence. The cells were incubated in serum-free medium for 30 min prior to initiating the experiments. Cells were then washed and harvested in PBS, and centrifuged at 1500 rpm for 5 min at 4° C. Protease inhibitors were then added and the pellets stored frozen at −30° C. until use.
1×10^3 cells were grown on sterilized glass cover slips in 6-well trays and treated with ApoCI (2.5 μg/ml medium), ApoCIII (2.5 μg/ml medium), tumor necrosis factor (TNF)-α (30 ng/ml), ApoCI-enriched HDL (1 μg apoA-I/ml medium) and ApoCI-poor HDL (5 μg apoA-I/ml medium). After 24 h incubation, the medium was removed, cells fixed with ethanol:acetic acid […] and stored at 4° C. Next, the fixing solution was removed and cells stored frozen at −30° C. Cover slips were mounted on the microscope slides and stained with DAPI reagent (4,6-diamino-2-phenylindol, dihydrochloride). The stained nuclei were visualized by fluorescence microscopy (Zeiss Axiovert 25). Apoptotic cells were determined after counting—500 cells in a double blind fashion.

[2] = system: human aortic smooth muscles cells (ASMC); experiment: DNA laddering assay; format: cell-based; settings: ApoCI or ApoCIII 2.5 μg/mL, TNF-α positive control
Description: as §1
Cells were treated with either TNF-α (30 ng/ml), ApoCI or ApoCIII (2.5 μg/ml) for 6 h. The cells were then washed twice with minimal essential medium and harvested with buffer (10 mM HEPES, pH 7.4. 5 mM EDTA, 0.25 mM EGTA, 50 mM NaF, 5 mM β-mercaptoethanol, 0.35 M sucrose, 0.1% Nonidet and protease inhibitors, 1 mM phenylmethylsulfonyl fluoride, 2 μg/ml leupeptin and 5 μg/ml pepstatin), and pelleted. Genomic DNA was prepared employing standard protocol. Genomic DNA was subjected to electrophoresis, stained with ethidium bromide and the gel was photographed. The gel was calibrated using DNA fragments of known molecular weight.

N-SMase = experiment: Neutral sphingomyelinase assay in treated ASMC ([14C]sphingomyelin substrate); format: cell-based, human; settings: 5 min; ApoCI 2.5 μg/mL, TNF-α 20 ng/mL, ApoCI-enriched HDL 1 μg apoA-I/mL; control 22 nmol/h per mg protein = 100%
Description: FIGS. 3A-3C depict the effects of ApoCI, ApoCIII, TNF-α, ApoCI-enriched HDL, and ApoCI-poor HDL on the activity of N-SMase in ASMC. Confluent cultures of ASMC were preincubated for 30 minutes with serum-free (control) medium, then ApoCI (2.5 μg/mL medium), ApoCIII (2.5 μg/mL medium), TNF-α (20 ng/mL medium) (FIG. 3A, top), or ApoCI-enriched HDL (1 μg apoAI/mL medium), or ApoCI-poor HDL (5 μg apoA-I/mL medium) (FIG. 3B, middle) were added individually to cells. The cells were then incubated and harvested at the indicated time points, and the activity was of N-SMase determined using [^14C]sphingomyelin as substrate. The N-SMase activity in control cells was 22 nmol/h per milligram cell protein, and this value was considered as 100% activity. In a separate experiment (FIG. 3C bottom), cells (0.5×10^5) were seeded in P60 Petri dishes and grown in DMEM supplemented with 10% fetal bovine serum for 5 days. After preincubation of cells for 30 minutes in serum-free medium, increasing amounts of ApoCI were added. After incubation for 10 minutes, cells were harvested, and N-SMase activity was measured.
After stimulation with ApoCI ApoCI-enriched HDL and ApoCI-poor HDL, the cells were washed with 5 ml of PBS and harvested. The pellets were stored frozen at −70° C. and resuspended in 0.5 ml of buffer (100 mM Tris-HCl pH 7.4, 0.1% Triton X-100, 1 mM EDTA and protease inhibitors). The cell suspension was sonicated 3 times (3-s bursts) using a probe sonicator and centrifuged at 500×g at 4° C. for 5 min. The supernatant was used as the enzyme source. 100 μg of protein was assayed for neutral sphingomyelinase activity in a buffer consisting of 50 mM Tris-HCl, pH 7.4, 0.1% Triton X-100, 0.1 mg of bovine serum albumin, 5 mM MgCl2 and […] of [^14C]sphingomyelin (specific activity 50 mCi/mmol, from American Radiolabled Chemicals (St. Louis, Mo.). The samples were incubated at 37° C. for 2 h and terminated with the addition of 1 ml of 10% trichloroacetic acid. The precipitate was pelleted (1000×g at 4° C. for 30 min) and 1 ml of the supernatant was extracted with 1 ml of anhydrous diethyl ether. About 0.5 ml of the aqueous phase was removed for liquid scintillation counting (Ghosh, N., and Chatterjee, S. (1998) J. Biol. Chem. 264, 12554-12561).

CCCCCCCCCCCCC/C=C/[C@@H](O)[C@H](CO)NC(C)=O [C2-ceramide]
percent apoptotic cells with C2-ceramide added to ApoCI and GW4869 [1]: ~12.5%

tumor necrosis factor α [TNF-α]
DNA laddering on agarose gel (FIG. 1C) [2]: exhibited DNA laddering | increase in the activity of N-SMase at 5 minutes (N-SMase): ~2 fold
